Assay results taken from publication PMC7781520 (Channels, 2020).

Target: Kv1.3 voltage-gated K+ channel (Homo sapiens, UniProt P22001)
Format: cell-based

Chain of Kv1.3 voltage-gated K+ channel (P22001 whole entry): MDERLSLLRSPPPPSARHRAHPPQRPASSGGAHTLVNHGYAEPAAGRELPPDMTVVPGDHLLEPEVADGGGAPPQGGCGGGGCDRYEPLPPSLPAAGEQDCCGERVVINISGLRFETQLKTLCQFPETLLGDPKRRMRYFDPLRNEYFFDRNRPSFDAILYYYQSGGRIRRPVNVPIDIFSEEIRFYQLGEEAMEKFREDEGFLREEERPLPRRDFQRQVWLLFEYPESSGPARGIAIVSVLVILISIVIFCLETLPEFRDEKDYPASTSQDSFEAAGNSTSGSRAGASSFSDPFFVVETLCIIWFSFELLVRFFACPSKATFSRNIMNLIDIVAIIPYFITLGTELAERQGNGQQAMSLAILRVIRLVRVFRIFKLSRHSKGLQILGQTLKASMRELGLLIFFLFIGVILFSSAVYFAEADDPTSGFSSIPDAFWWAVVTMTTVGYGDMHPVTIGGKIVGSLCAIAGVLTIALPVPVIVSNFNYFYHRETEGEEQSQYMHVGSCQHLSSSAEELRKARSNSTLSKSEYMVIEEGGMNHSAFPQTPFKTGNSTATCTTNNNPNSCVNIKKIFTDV

`CC[N+](CC)(CC)CC` [TEA+] was tested, and the IC50 was 10.3 ± 0.71 mM.
